The values below come from US9850256B2, “Antibacterial basic biaromatic derivatives with aminoalkoxy substitution” (priority 2014, dated 2017).

Converted amounts (≈) assume the structure as drawn.

For orientation: MIC means the least concentration at which growth counts as inhibited. A higher MIC goes with a less susceptible organism.

Common to all, as to test: Bacterial growth minimal inhibitory concentration (microdilution, cation-adjusted Mueller-Hinton Broth)
In general terms: Dilution methods test growth across graded concentrations, often in twofold steps.

The test system of one experiment is S. aureus A798. In kind it is cell-based, Staphylococcus aureus. To be noted: multiply-resistant strain (methicillin- and quinolone-resistant); for MIC: Staphylococcus aureus, A798. The procedure: (§1) Minimal Inhibitory Concentrations (MICs; mg/L) were determined in cation-adjusted Mueller-Hinton Broth by a microdilution method following the description given in “Methods for Dilution Antimicrobial Susceptibility Tests for Bacteria that Grow Aerobically”, Approved standard, 7th ed., Clinical and Laboratory Standards Institute (CLSI) Document M7-A7, Wayne, Pa., USA (2006).
(§2) All Example compounds were tested against several Gram positive and Gram negative bacteria. […] Staphylococcus aureus A798 is a multiply-resistant strain (methicillin- and quinolone-resistant), Klebsiella pneumoniae T6474 is a multiply-resistant strain (penicillin-, cephalosporin- and in particular quinolone-resistant), while E. coli ATCC25922 and Pseudomonas aeruginosa ATCC 27853 are quinolone-sensitive strains.

A further experiment deals with K. pneumoniae T6474. The experiment is classed as cell-based, Klebsiella pneumoniae. The settings on record: multiply-resistant strain (penicillin-, cephalosporin- and quinolone-resistant); for MIC: Klebsiella pneumoniae, T6474. The procedure: as §1, §2
Another experiment has as its system E. coli ATCC25922. The experiment is classed as cell-based. The settings on record: quinolone-sensitive strain; for MIC: Escherichia coli, ATCC25922. The procedure:
as §1, §2

A further experiment has as its system P. aeruginosa ATCC 27853. In kind it is cell-based, Pseudomonas aeruginosa. The settings on record: quinolone-sensitive strain; for MIC: Pseudomonas aeruginosa, ATCC27853. The procedure: as §1, §2

As for `CC(CN)Oc1cccc(-c2cccc(CNCC[C@H]3CN(c4ccc5c(n4)NC(=O)CO5)C(=O)O3)c2)c1` (mixture of isomers) [Example 6, 6-((S)-5-(2-(((3′-(((RS)-1-aminopropan-2-yl)oxy)-[1,1′-biphenyl]-3-yl)methyl)amino)ethyl)-2-oxooxazolidin-3-yl)-2H-pyrido[3,2-b][1,4]oxazin-3(4H)-one], the minimum inhibitory concentration (MIC) against S. aureus A798, in the experiment on K. pneumoniae T6474, with E. coli ATCC25922 and against P. aeruginosa ATCC 27853 was 4 µg/mL each time.
For `O=C1COc2ccc(N3C[C@H](CCNCc4cccc(-c5cccc(OC6CCNC6)c5)c4)OC3=O)nc2N1` (mixture of isomers) [Example $103, 6-[(S)-2-oxo-5-(2-{[3′-((RS)-pyrrolidin-3-yloxy)-biphenyl-3-ylmethyl]-amino}-ethyl)-oxazolidin-3-yl]-4H-pyrido[3,2-b][1,4]oxazin-3-one], the minimum inhibitory concentration (MIC) in the experiment with S. aureus A798 was determined as 2 µg/mL; against K. pneumoniae T6474, 1 µg/mL; in the experiment on E. coli ATCC25922 it was 1 µg/mL; against P. aeruginosa ATCC 27853, 1 µg/mL.
As to `O=C1COc2ccc(N3C[C@H](CCNCc4cccc(-c5cccc(OCC6CNCCO6)n5)c4)OC3=O)nc2N1.O=CO` (mixture of isomers) [Example $109, 6-[(S)-5-(2-{3-[6-((RS)-1-morpholin-2-ylmethoxy)-pyridin-2-yl]-benzylamino}-ethyl)-2-oxo-oxazolidin-3-yl]-4H-pyrido[3,2-b][1,4]oxazin-3-one formate], the MIC in the experiment with S. aureus A798 stood at 0.5 µg/mL; against K. pneumoniae T6474 it was 2 µg/mL; in the experiment on E. coli ATCC25922, 1 µg/mL; in the experiment with P. aeruginosa ATCC 27853, 1 µg/mL.
As to `O=C1COc2ccc(N3C[C@H](CCNCc4cccc(-c5cccc(OCC6COCCN6)n5)c4)OC3=O)nc2N1.O=CO` (mixture of isomers) [Example $110, 6-[(S)-5-(2-{3-[6-((RS)-1-morpholin-3-ylmethoxy)-pyridin-2-yl]-benzylamino}-ethyl)-2-oxo-oxazolidin-3-yl]-4H-pyrido[3,2-b][1,4]oxazin-3-one formate], the MIC came out at 0.25 µg/mL against S. aureus A798, 2 µg/mL against K. pneumoniae T6474, 1 µg/mL in the experiment with E. coli ATCC25922 and 2 µg/mL in the experiment with P. aeruginosa ATCC 27853.
Take `O=C1COc2ccc(N3C[C@H](CCNCc4cccc(-c5cccc(OC6CCCNC6)n5)c4)OC3=O)nc2N1.O=CO` (mixture of isomers) [Example $111, 6-[(S)-2-oxo-5-(2-{3-[6-((RS)-piperidin-3-yloxy)-pyridin-2-yl]-benzylamino}-ethyl)-oxazolidin-3-yl]-4H-pyrido[3,2-b][1,4]oxazin-3-one formate]: the MIC with S. aureus A798 was 1 µg/mL; in the experiment on K. pneumoniae T6474, 2 µg/mL; in the experiment with E. coli ATCC25922, 2 µg/mL; against P. aeruginosa ATCC 27853, 2 µg/mL.
Take `CCN1CCC(Oc2cccc(-c3cccc(CNCC[C@H]4CN(c5ccc6c(n5)NC(=O)CO6)C(=O)O4)c3)n2)C1` (mixture of isomers) [Example $126, 6-[(S)-5-(2-{3-[6-((RS)-1-ethyl-pyrrolidin-3-yloxy)-pyridin-2-yl]-benzylamino}-ethyl)-2-oxo-oxazolidin-3-yl]-4H-pyrido[3,2-b][1,4]oxazin-3-one]: the MIC came out at 0.5 µg/mL in the experiment with S. aureus A798, 2 µg/mL against K. pneumoniae T6474, 1 µg/mL against E. coli ATCC25922 and 2 µg/mL against P. aeruginosa ATCC 27853.
With `CC(C)N1CCC(Oc2cccc(-c3cccc(CNCC[C@H]4CN(c5ccc6c(n5)NC(=O)CO6)C(=O)O4)c3)n2)C1` (mixture of isomers) [Example $134, 6-[(S)-5-(2-{3-[6-((RS)-1-isopropyl-pyrrolidin-3-yloxy)-pyridin-2-yl]-benzylamino}-ethyl)-2-oxo-oxazolidin-3-yl]-4H-pyrido[3,2-b][1,4]oxazin-3-one], the MIC against S. aureus A798 was determined as 0.5 µg/mL; against K. pneumoniae T6474 it was 4 µg/mL; against E. coli ATCC25922, 2 µg/mL; with P. aeruginosa ATCC 27853, 4 µg/mL.
Take `C[C@H]1NC[C@H]1Oc1cccc(-c2cccc(CNCC[C@H]3CN(c4ccc5c(n4)NC(=O)CO5)C(=O)O3)c2)n1` (mixture of isomers) [Example $135, 6-[(S)-5-(2-{3-[6-((2RS,3RS)-2-methyl-azetidin-3-yloxy)-pyridin-2-yl]-benzylamino}-ethyl)-2-oxo-oxazolidin-3-yl]-4H-pyrido[3,2-b][1,4]oxazin-3-one]: the minimal inhibitory concentration (MIC) in the experiment with S. aureus A798 was 0.5 µg/mL; against K. pneumoniae T6474 it was 1 µg/mL; in the experiment with E. coli ATCC25922 it was 0.5 µg/mL; in the experiment on P. aeruginosa ATCC 27853, 0.5 µg/mL.
Take `CN1CCC[C@H](Oc2cccc(-c3cccc(CNCCC4CN(c5ccc6c(n5)NC(=O)CO6)C(=O)O4)c3)n2)C1` (mixture of isomers) [Example $142, 6-[(RS)-5-(2-{3-[6-((S)-1-methyl-piperidin-3-yloxy)-pyridin-2-yl]-benzylamino}-ethyl)-2-oxo-oxazolidin-3-yl]-4H-pyrido[3,2-b][1,4]oxazin-3-one]: the MIC was 0.5 µg/mL with S. aureus A798, 2 µg/mL against K. pneumoniae T6474, 2 µg/mL in the experiment on E. coli ATCC25922 and 2 µg/mL against P. aeruginosa ATCC 27853.
Regarding `C[C@@H]1[C@H](Oc2cccc(-c3cccc(CNCC[C@H]4CN(c5ccc6c(n5)NC(=O)CO6)C(=O)O4)c3)n2)CN1C` (mixture of isomers) [Example $178, 6-[(S)-5-(2-{3-[6-((2RS,3RS)-1,2-dimethyl-azetidin-3-yloxy)-pyridin-2-yl]-benzylamino}-ethyl)-2-oxo-oxazolidin-3-yl]-4H-pyrido[3,2-b][1,4]oxazin-3-one], the MIC against S. aureus A798 worked out at 0.125 µg/mL; in the experiment on K. pneumoniae T6474 it was 1 µg/mL; against E. coli ATCC25922, 0.5 µg/mL; against P. aeruginosa ATCC 27853 it was 1 µg/mL.
Turning to `NC1[C@H]2CN(CCOc3cccc(-c4cccc(CNCC[C@H]5CN(c6ccc7c(n6)NC(=O)CO7)C(=O)O5)c4)c3)C[C@@H]12` (mixture of isomers) [Example $117, 6-{(S)-5-[2-({3′-[2-((1R*,5S*,6RS)-6-amino-3-aza-bicyclo[3.1.0]hex-3-yl)-ethoxy]-biphenyl-3-ylmethyl}-amino)-ethyl]-2-oxo-oxazolidin-3-yl}-4H-pyrido[3,2-b][1,4]oxazin-3-one], the “MIC for S. aureus A798” value with S. aureus A798 was found to be 1 µg/mL. The “MIC for K. pneumoniae T6474” value with K. pneumoniae T6474 turned out to be 1 µg/mL. Moreover, in the experiment with E. coli ATCC25922, the “MIC for E. coli ATCC25922” value is 1 µg/mL. In addition, the “MIC for P. aeruginosa ATCC 27853” value with P. aeruginosa ATCC 27853 was 4 µg/mL.
On to `C[C@@H]1NCC[C@@H]1Oc1cccc(-c2cccc(CNCC[C@H]3CN(c4ccc5c(n4)NC(=O)CO5)C(=O)O3)c2)n1` (relative stereo) [Example $172, 6-[(S)-5-(2-{3-[6-((2S*,3S*)-2-methyl-pyrrolidin-3-yloxy)-pyridin-2-yl]-benzylamino}-ethyl)-2-oxo-oxazolidin-3-yl]-4H-pyrido[3,2-b][1,4]oxazin-3-one], for which the minimal inhibitory concentration (MIC) against S. aureus A798 worked out at 0.5 µg/mL (≈ 0.918 µM); against K. pneumoniae T6474, 2 µg/mL (≈ 3.67 µM); against E. coli ATCC25922 it was 1 µg/mL (≈ 1.84 µM); in the experiment on P. aeruginosa ATCC 27853, 0.5 µg/mL (≈ 0.918 µM).
For `C[C@@H]1CNC[C@H]1Oc1cccc(-c2cccc(CNCC[C@H]3CN(c4ccc5c(n4)NC(=O)CO5)C(=O)O3)c2)n1` (relative stereo) [Example $173, 6-[(S)-5-(2-{3-[6-((3S*,4R*)-4-methyl-pyrrolidin-3-yloxy)-pyridin-2-yl]-benzylamino}-ethyl)-2-oxo-oxazolidin-3-yl]-4H-pyrido[3,2-b][1,4]oxazin-3-one], the MIC is 0.5 µg/mL (≈ 0.918 µM) with S. aureus A798, 2 µg/mL (≈ 3.67 µM) with K. pneumoniae T6474, 1 µg/mL (≈ 1.84 µM) with E. coli ATCC25922 and 1 µg/mL (≈ 1.84 µM) with P. aeruginosa ATCC 27853.
On to `C[C@H]1[C@@H](Oc2cccc(-c3cccc(CNCC[C@H]4CN(c5ccc6c(n5)NC(=O)CO6)C(=O)O4)c3)n2)CCN1C` (relative stereo) [Example $176, 6-[(S)-5-(2-{3-[6-((2S*,3S*)-1,2-dimethyl-pyrrolidin-3-yloxy)-pyridin-2-yl]-benzylamino}-ethyl)-2-oxo-oxazolidin-3-yl]-4H-pyrido[3,2-b][1,4]oxazin-3-one], for which the minimal inhibitory concentration (MIC) stood at 0.25 µg/mL (≈ 0.448 µM) against S. aureus A798, 2 µg/mL (≈ 3.58 µM) against K. pneumoniae T6474, 2 µg/mL (≈ 3.58 µM) in the experiment on E. coli ATCC25922 and 2 µg/mL (≈ 3.58 µM) against P. aeruginosa ATCC 27853.
As for `C[C@@H]1CN(C)C[C@H]1Oc1cccc(-c2cccc(CNCC[C@H]3CN(c4ccc5c(n4)NC(=O)CO5)C(=O)O3)c2)n1` (relative stereo) [Example $177, 6-[(S)-5-(2-{3-[6-((3S*,4R*)-1,4-dimethyl-pyrrolidin-3-yloxy)-pyridin-2-yl]-benzylamino}-ethyl)-2-oxo-oxazolidin-3-yl]-4H-pyrido[3,2-b][1,4]oxazin-3-one], the MIC with S. aureus A798 turned out to be 0.5 µg/mL (≈ 0.895 µM); with K. pneumoniae T6474, 4 µg/mL (≈ 7.16 µM); against E. coli ATCC25922 it was 2 µg/mL (≈ 3.58 µM); against P. aeruginosa ATCC 27853 it was 4 µg/mL (≈ 7.16 µM).
With `CO[C@H]1CNC[C@H]1Oc1cccc(-c2cccc(CNCC[C@H]3CN(c4ccc5c(n4)NC(=O)CO5)C(=O)O3)c2)n1` (relative stereo) [Example $184, (3R*,4S*)-6-[(S)-5-(2-{3-[6-(4-methoxy-pyrrolidin-3-yloxy)-pyridin-2-yl]-benzylamino}-ethyl)-2-oxo-oxazolidin-3-yl]-4H-pyrido[3,2-b][1,4]oxazin-3-one], the MIC was determined as 8 µg/mL (≈ 14.3 µM) against S. aureus A798, 8 µg/mL (≈ 14.3 µM) in the experiment with K. pneumoniae T6474, 4 µg/mL (≈ 7.14 µM) with E. coli ATCC25922 and 2 µg/mL (≈ 3.57 µM) in the experiment on P. aeruginosa ATCC 27853.
Turning to `N[C@@H]1CC[C@H](Oc2cccc(-c3cccc(CNCC[C@H]4CN(c5ccc6c(n5)NC(=O)CO6)C(=O)O4)c3)c2)C1` [$183, 6-[(S)-5-(2-{[3′-((1S,3R)-3-amino-cyclopentyloxy)-biphenyl-3-ylmethyl]-amino}-ethyl)-2-oxo-oxazolidin-3-yl]-4H-pyrido[3,2-b][1,4]oxazin-3-one], the minimal inhibitory concentration (MIC) against S. aureus A798 was 2 µg/mL (≈ 3.68 µM); in the experiment on K. pneumoniae T6474, 4 µg/mL (≈ 7.36 µM); against E. coli ATCC25922, 4 µg/mL (≈ 7.36 µM); against P. aeruginosa ATCC 27853 it was 4 µg/mL (≈ 7.36 µM).
